Assay results from patent US8226976B2, “Method of using cell-free protein synthesis to produce a membrane protein” (Riken, priority 2007, dated 2012).

What was measured:
[1] = in water; cited from earlier work
[2] = test system: cell-free protein synthesis system (S30 extract); assay: cell-free synthesis of BR by the dialysis method with the cholate concentration kept constant; type: biochemical, E. coli; settings: 1% sodium cholate added to internal and external dialysis solutions; FIG. 2, Lanes 3, 4
Protocol: A protein synthesis reaction was performed as follows: an internal solution of the composition as shown in table 1 as mentioned below was supplied with 100 μM all-trans retinal at final concentration (Sigma), 9 μg of synthetic plasmid as necessary, a predetermined concentration of a detergent, and 6 mg of egg yolk phosphatidylcholine (Type XVI-E, Sigma) to prepare a reaction solution, 0.9 ml of which was poured into a dialysis membrane (Spectra/Por 7, Molecular Weight Cut Off: 15000, Spectrum). The synthesis reaction was performed at 30° C. for 6 h during dialysis which was to 10 times volume of external solution (9 mL) in a 15 mL conical tube by rotary shaking with a rotary shaker (RT-50, TAITEC). […]
After termination of the synthesis reaction, the reaction internal solution was centrifuged at 15000 rpm for 10 min. […] Scatter correction was performed by subjecting the determined scores from 680 nm to 750 nm to linear regression to subtract from the measured spectrums. The amount of an active BR was calculated from the score of the spectrum of 560 nm as subjected to the scatter correction using the molar absorption coefficient: 42000 and the molecular weight: 31.4 k. […]

| SMILES | critical micelle concentration (cmc) [1] | synthesis of BR (effect of inhibiting protein synthesis) [2] |
| --- | --- | --- |
| C[C@H](CCC(=O)NCCC[N+](C)(C)CCCS(=O)(=O)[O-])[C@H]1CC[C@H]2[C@@H]3[C@H](O)C[C@@H]4C[C@H](O)CC[C@]4(C)[C@H]3C[C@H](O)[C@]12C [CHAPS, 3-[(3-cholamidepropyl)dimethylammonio]-1-propanesulfonate] | 0.49 % (w/v) |  |
| C[C@@H]1CC[C@@]2(OC1)O[C@H]1[C@@H](O)[C@H]3[C@@H]4CC[C@H]5C[C@@H](O[C@@H]6O[C@H](CO)[C@H](O[C@@H]7O[C@H](CO)[C@@H](O)[C@H](O[C@@H]8OC[C@@H](O)[C@H](O)[C@H]8O)[C@H]7O[C@@H]7O[C@H](CO)[C@H](O)[C@H](O[C@@H]8O[C@H](CO)[C@@H](O)[C@H](O)[C@H]8O)[C@H]7O)[C@H](O)[C@H]6O)[C@H](O)C[C@]5(C)[C@H]4CC[C@]3(C)[C@H]1[C@@H]2C [digitonin] | 0.06 % (w/v) |  |
| C[C@H](CCC(=O)[O-])[C@H]1CC[C@H]2[C@@H]3[C@H](O)C[C@@H]4C[C@H](O)CC[C@]4(C)[C@H]3C[C@H](O)[C@]12C.[Na+] [sodium cholate] | 0.41 % (w/v) | synthesis of BR was not found |
